BindingDB's records for doi:10.1021/jm058205b (Johnson & Johnson Pharmaceutical, 2005)

What follows are compounds tested against Platelet-derived growth factor receptor beta (Homo sapiens, UniProt P09619) (assay: Kinase Inhibition Assay). Conditions: not given.
Protocol: (§1) The enzyme was assayed with a biotinylated peptide substrate and test compounds in the presence of 5 uM ATP/[gamma-33P]ATP in a streptavidin coated FlashPlate (Perkin-Elmer, Boston, MA). Inhibition of the enzymatic activity due to the compound was measured by observing a reduced amount of 33P-gamma-ATP incorporated into the immobilized peptide relative to untreated controls. Linear regression analysis of the percent of inhibition by the test compound was used to calculate IC50 values.

Chain of Platelet-derived growth factor receptor beta (P09619 whole entry): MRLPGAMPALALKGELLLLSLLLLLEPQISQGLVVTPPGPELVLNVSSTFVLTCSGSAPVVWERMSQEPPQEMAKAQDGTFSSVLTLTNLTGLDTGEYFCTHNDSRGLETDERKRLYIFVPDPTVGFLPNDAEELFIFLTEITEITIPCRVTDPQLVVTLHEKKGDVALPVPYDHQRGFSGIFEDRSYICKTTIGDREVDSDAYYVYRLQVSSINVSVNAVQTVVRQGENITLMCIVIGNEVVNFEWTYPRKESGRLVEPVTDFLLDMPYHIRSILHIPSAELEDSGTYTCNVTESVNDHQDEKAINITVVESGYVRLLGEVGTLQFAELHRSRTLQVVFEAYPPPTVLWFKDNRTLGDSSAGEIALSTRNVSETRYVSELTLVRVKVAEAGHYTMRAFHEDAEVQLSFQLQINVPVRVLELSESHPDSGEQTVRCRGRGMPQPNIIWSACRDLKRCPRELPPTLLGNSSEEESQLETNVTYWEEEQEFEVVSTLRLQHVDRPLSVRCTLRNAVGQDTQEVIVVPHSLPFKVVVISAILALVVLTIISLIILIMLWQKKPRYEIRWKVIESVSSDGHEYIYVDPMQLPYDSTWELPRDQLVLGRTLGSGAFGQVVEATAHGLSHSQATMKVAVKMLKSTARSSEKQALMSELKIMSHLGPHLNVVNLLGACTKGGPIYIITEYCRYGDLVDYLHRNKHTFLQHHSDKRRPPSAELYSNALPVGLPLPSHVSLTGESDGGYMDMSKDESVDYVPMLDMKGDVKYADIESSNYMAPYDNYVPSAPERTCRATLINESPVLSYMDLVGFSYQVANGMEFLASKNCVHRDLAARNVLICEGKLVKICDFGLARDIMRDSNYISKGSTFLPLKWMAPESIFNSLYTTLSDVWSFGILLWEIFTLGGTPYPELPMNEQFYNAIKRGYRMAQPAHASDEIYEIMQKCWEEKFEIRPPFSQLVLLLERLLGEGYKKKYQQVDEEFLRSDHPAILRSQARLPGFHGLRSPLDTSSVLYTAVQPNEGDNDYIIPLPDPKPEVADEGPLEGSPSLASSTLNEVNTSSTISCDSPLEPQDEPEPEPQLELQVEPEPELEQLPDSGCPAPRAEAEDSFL

Row | IC50 | Structure (SMILES)
1 | > 10 µM | CN(C)CCNc1cncc(-c2cncc(Nc3cccc(Cl)c3)n2)c1 [N-{5-[6-(3-Chloro-phenylamino)-pyrazin-2-yl]-pyridin-3-yl}-N ,N -dimethyl-ethane-1,2-diamine]

Each compound was assayed against Vascular endothelial growth factor receptor 2 (Rattus norvegicus, UniProt O08775) (assay: Kinase Inhibition Assay). Conditions: not given.
Protocol: as §1

Chain of Vascular endothelial growth factor receptor 2 (O08775 whole entry): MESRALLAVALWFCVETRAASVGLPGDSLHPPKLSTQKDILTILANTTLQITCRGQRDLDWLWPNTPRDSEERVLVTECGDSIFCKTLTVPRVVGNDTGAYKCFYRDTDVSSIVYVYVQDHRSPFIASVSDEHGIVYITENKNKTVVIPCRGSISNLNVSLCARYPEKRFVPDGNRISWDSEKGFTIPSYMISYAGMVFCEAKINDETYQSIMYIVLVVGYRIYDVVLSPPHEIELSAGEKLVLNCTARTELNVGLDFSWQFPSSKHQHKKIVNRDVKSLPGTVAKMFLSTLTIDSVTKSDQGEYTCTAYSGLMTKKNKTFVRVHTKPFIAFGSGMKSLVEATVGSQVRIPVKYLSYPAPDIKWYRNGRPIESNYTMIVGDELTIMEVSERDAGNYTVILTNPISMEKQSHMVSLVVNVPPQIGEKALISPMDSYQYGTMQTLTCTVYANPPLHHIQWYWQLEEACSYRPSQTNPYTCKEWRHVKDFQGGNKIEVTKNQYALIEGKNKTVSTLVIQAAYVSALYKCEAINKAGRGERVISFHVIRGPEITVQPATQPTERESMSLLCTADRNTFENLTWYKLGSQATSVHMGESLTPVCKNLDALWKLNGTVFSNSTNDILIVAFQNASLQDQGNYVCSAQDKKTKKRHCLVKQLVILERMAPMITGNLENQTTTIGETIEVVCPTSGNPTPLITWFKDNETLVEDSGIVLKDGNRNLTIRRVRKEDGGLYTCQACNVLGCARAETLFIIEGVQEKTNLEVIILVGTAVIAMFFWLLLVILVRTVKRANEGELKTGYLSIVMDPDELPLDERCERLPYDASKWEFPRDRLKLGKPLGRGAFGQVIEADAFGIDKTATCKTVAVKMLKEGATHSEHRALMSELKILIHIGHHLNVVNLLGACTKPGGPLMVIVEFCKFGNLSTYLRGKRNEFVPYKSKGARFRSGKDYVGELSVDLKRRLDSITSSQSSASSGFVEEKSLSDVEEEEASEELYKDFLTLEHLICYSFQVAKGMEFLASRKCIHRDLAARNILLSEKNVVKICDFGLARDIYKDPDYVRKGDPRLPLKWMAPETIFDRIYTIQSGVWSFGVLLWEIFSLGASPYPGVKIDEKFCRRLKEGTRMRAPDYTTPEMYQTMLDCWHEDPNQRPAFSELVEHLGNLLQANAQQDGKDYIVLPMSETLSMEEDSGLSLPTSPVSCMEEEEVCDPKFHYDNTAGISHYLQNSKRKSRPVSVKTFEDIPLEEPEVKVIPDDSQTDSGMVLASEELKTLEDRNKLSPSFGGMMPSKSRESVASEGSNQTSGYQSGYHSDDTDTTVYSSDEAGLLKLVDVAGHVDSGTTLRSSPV

Row | IC50 | Structure (SMILES)
2 | > 10 µM | CN(C)c1ccc(C(=O)Nc2cncc(-c3cncc(Nc4cccc(Cl)c4)n3)c2)cc1 [N-(5-{6-[(3-chlorophenyl)amino]pyrazin-2-yl}pyridin-3-yl)-4-(dimethylamino)benzamide]

These compounds were tested against Cyclin-dependent kinase/G2/mitotic-specific cyclin- 1 (Homo sapiens, UniProt P06493) (assay: Kinase Inhibition Assay). Conditions: not given.
Protocol: as §1

Chain of Cyclin-dependent kinase/G2/mitotic-specific cyclin- 1 (P06493 whole entry): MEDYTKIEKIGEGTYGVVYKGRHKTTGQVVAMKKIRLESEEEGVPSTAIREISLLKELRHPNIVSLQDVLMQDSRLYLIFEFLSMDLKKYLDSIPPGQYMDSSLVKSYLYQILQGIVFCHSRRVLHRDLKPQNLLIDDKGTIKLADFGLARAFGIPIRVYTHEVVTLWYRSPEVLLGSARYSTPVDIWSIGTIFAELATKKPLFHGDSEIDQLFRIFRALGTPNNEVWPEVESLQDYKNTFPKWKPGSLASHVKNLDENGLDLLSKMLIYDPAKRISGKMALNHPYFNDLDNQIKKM
Chain of Cyclin-dependent kinase/G2/mitotic-specific cyclin- 1 (P14635 whole entry, further chain): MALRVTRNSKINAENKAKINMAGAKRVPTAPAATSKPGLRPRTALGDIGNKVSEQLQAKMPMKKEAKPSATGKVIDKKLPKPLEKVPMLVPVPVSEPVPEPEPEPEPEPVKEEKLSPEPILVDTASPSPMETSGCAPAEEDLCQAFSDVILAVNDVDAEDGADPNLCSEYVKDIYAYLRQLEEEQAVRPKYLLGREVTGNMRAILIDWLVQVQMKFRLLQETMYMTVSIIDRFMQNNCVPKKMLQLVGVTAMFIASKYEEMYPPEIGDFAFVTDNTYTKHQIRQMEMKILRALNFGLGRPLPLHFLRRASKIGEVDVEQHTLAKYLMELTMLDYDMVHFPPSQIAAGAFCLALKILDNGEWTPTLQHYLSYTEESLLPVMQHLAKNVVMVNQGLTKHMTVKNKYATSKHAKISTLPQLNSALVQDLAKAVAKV

Row | IC50 | Structure (SMILES)
3 | > 10 µM | O=C(CCCNc1cncc(-c2cncc(Nc3cccc(Cl)c3)n2)c1)N1CCCCC1 [4-[(5-{6-[(3-chlorophenyl)amino]pyrazin-2-yl}pyridin-3-yl)amino]-1-(piperidin-1-yl)butan-1-one]
4 | > 10 µM | OCCNc1cncc(-c2cncc(Nc3cccc(Cl)c3)n2)c1 [2-{5-[6-(3-Chloro-phenylamino)-pyrazin-2-yl]-pyridin-3-ylamino}-ethanol]
5 | > 10 µM | OCCCCNc1cncc(-c2cncc(Nc3cccc(Cl)c3)n2)c1 [4-[(5-{6-[(3-chlorophenyl)amino]pyrazin-2-yl}pyridin-3-yl)amino]butan-1-ol]
6 | > 10 µM | Clc1cccc(Nc2cncc(-c3cncc(NCC4CCOCC4)c3)n2)c1 [N-(3-chlorophenyl)-6-{5-[(oxan-4-ylmethyl)amino]pyridin-3-yl}pyrazin-2-amine]
7 | > 10 µM | COCC(=O)Nc1cncc(-c2cncc(Nc3cccc(Cl)c3)n2)c1 [N-{5-[6-(3-Chloro-phenylamino)-pyrazin-2-yl]-pyridin-3-yl}-2-methoxy-acetamide]
8 | > 10 µM | Nc1ncc(NCCCO)cc1-c1cncc(Nc2cccc(Cl)c2)n1 [3-[(6-amino-5-{6-[(3-chlorophenyl)amino]pyrazin-2-yl}pyridin-3-yl)amino]propan-1-ol]
9 | > 10 µM | CN(C)c1ccc(C(=O)Nc2cncc(-c3cncc(Nc4cccc(Cl)c4)n3)c2)cc1 [N-(5-{6-[(3-chlorophenyl)amino]pyrazin-2-yl}pyridin-3-yl)-4-(dimethylamino)benzamide]
10 | > 10 µM | Clc1cccc(Nc2cncc(-c3cncc(NCCCc4ccccc4)c3)n2)c1 [N-(3-chlorophenyl)-6-{5-[(3-phenylpropyl)amino]pyridin-3-yl}pyrazin-2-amine]
11 | > 10 µM | O=C(COCc1ccccc1)Nc1cncc(-c2cncc(Nc3cccc(Cl)c3)n2)c1 [N-{5-[6-(3-Chloro-phenylamino)-pyrazin-2-yl]-pyridin-3-yl}-2-benzyloxy-acetamide]
12 | > 10 µM | Clc1cccc(Nc2cncc(-c3cncc(NCCCn4cncn4)c3)n2)c1 [N-(3-chlorophenyl)-6-(5-{[3-(1H-1,2,4-triazol-1-yl)propyl]amino}pyridin-3-yl)pyrazin-2-amine]
13 | > 10 µM | O=C(CO)Nc1cncc(-c2cncc(Nc3cccc(Cl)c3)n2)c1 [N-{5-[6-(3-Chloro-phenylamino)-pyrazin-2-yl]-pyridin-3-yl}-2-hydroxy-acetamide]
14 | > 10 µM | OCCCNc1cnc(F)c(-c2cncc(Nc3cccc(Cl)c3)n2)c1 [3-{5-[6-(3-Chloro-phenylamino)-pyrazin-2-yl]-6-fluoropyridin-3-ylamino}-propan-1-ol]
15 | > 10 µM | O=C(NCCCO)c1cncc(-c2cncc(Nc3cccc(Cl)c3)n2)c1 [5-[6-(3-Chloro-phenylamino)-pyrazin-2-yl]-N-(3-hydroxy-propyl)-nicotinamide]
16 | > 10 µM | COCCC(=O)Nc1cncc(-c2cncc(Nc3cccc(Cl)c3)n2)c1 [N-(5-{6-[(3-chlorophenyl)amino]pyrazin-2-yl}pyridin-3-yl)-3-methoxypropanamide]
17 | > 10 µM | CN1CCN(CCCNc2cncc(-c3cncc(Nc4cccc(Cl)c4)n3)c2)CC1 [N-(3-chlorophenyl)-6-(5-{[3-(4-methylpiperazin-1-yl)propyl]amino}pyridin-3-yl)pyrazin-2-amine]
18 | > 10 µM | Clc1cccc(Nc2cncc(-c3cncc(NCCCn4cccn4)c3)n2)c1 [N-(3-Chlorophenyl)-6-[5-[[3-(1H-pyrazol-1-yl)propyl]-amino]-3-pyridinyl]-2-pyrazinamine]
19 | > 10 µM | CN(C)CCNc1cncc(-c2cncc(Nc3cccc(Cl)c3)n2)c1 [N-{5-[6-(3-Chloro-phenylamino)-pyrazin-2-yl]-pyridin-3-yl}-N ,N -dimethyl-ethane-1,2-diamine]
20 | > 10 µM | Clc1cccc(Nc2cncc(-c3cncc(NCCCN4CCOCC4)c3)n2)c1 [N-[5-[6-[(3-Chlorophenyl)amino]pyrazinyl]-3-pyridinyl]-4-morpholinepropanamine]
21 | > 10 µM | CN(C)CCCNc1cncc(-c2cncc(Nc3cccc(Cl)c3)n2)c1 [N-(3-chlorophenyl)-6-(5-{[3-(dimethylamino)propyl]amino}pyridin-3-yl)pyrazin-2-amine]

Row | Structure (SMILES) | IC50
22 | Clc1cccc(Nc2cncc(-c3cncc(NCCOc4ccccc4)c3)n2)c1 [(3-Chloro-phenyl)-{6-[5-(2-phenoxy-ethylamino)-pyridin-3-yl]-pyrazin-2-yl}-amine] | > 10 µM
23 | OCCCNc1cncc(-c2cncc(Nc3cccc(Cl)c3)n2)c1 [3-[[5-[6-[(3-chlorophenyl)amino]pyrazinyl]-3-pyridinyl]amino]-1-propanol] | > 10 µM
24 | OCCCNc1cnc(Cl)c(-c2cncc(Nc3cccc(Cl)c3)n2)c1 [3-[(6-chloro-5-{6-[(3-chlorophenyl)amino]pyrazin-2-yl}pyridin-3-yl)amino]propan-1-ol] | > 10 µM
25 | O=C(COc1ccccc1)Nc1cncc(-c2cncc(Nc3cccc(Cl)c3)n2)c1 [N-{5-[6-(3-Chloro-phenylamino)-pyrazin-2-yl]-pyridin-3-yl}-2-phenoxy-acetamide] | > 10 µM

Same assay, conditions: pH 8; 30 °C

Row | IC50 | Structure (SMILES)
26 | > 10 µM | COc1cccc(Nc2cncc(-c3cncc(NCCCO)c3)n2)c1 [3-[[5-[6-[(3-Methoxyphenyl)amino]pyrazinyl]-3-pyridinyl]-1-propanol]
27 | > 10 µM | OCCCNc1cncc(-c2cncc(Nc3ccccc3Cl)n2)c1 [3-{5-[6-(2-Chloro-phenylamino)-pyrazin-2-yl]-pyridin-3-ylamino}-propan-1-ol]
28 | > 10 µM | OCCCNc1cncc(-c2cncc(Nc3cccc(F)c3)n2)c1 [3-[(5-{6-[(3-fluorophenyl)amino]pyrazin-2-yl}pyridin-3-yl)amino]propan-1-ol]
29 | > 10 µM | Nc1cncc(-c2cncc(Nc3cccc(Cl)c3)n2)c1 [[6-(5-Amino-pyridin-3-yl)-pyrazin-2-yl]-(3-chloro-phenyl)-amine]
30 | > 10 µM | OCCCNc1cncc(-c2cncc(NCc3ccccc3)n2)c1 [3-[5-(6-Benzylamino-pyrazin-2-yl)-pyridin-3-yl-amino]-propan-1-ol]
31 | > 10 µM | Clc1ccc(Nc2cncc(-c3cncc(NCCCc4ccncc4)c3)n2)cc1Cl [N-(3,4-dichlorophenyl)-6-(5-{[3-(pyridin-4-yl)propyl]amino}pyridin-3-yl)pyrazin-2-amine]
32 | > 10 µM | Clc1cccc(Nc2cncc(-c3cncc(NCCCc4ccncc4)c3)n2)c1 [N-(3-chlorophenyl)-6-(5-{[3-(pyridin-4-yl)propyl]amino}pyridin-3-yl)pyrazin-2-amine]
33 | > 10 µM | Clc1ccc(Nc2cncc(-c3cncc(NCCCc4ccncc4)c3)n2)cc1 [(4-Chloro-phenyl)-{6-[5-(3-pyridin-4-yl-propylamino)pyridin-3-yl]-pyrazin-2-yl}-amine]
34 | > 10 µM | OCCCNc1cncc(-c2cncc(Oc3cccc(Cl)c3)n2)c1 [3-({5-[6-(3-chlorophenoxy)pyrazin-2-yl]pyridin-3-yl}amino)propan-1-ol]

Each compound was assayed against T1, Glycogen synthase kinase-3 beta [7-25] (Oryctolagus cuniculus, UniProt G1T8E2) (assay: Kinase Inhibition Assay). Conditions: not given.
T1 construct: 7-25
Protocol: as §1

Row | IC50 | Structure (SMILES)
35 | > 10 µM | CN(C)CCNc1cncc(-c2cncc(Nc3cccc(Cl)c3)n2)c1 [N-{5-[6-(3-Chloro-phenylamino)-pyrazin-2-yl]-pyridin-3-yl}-N ,N -dimethyl-ethane-1,2-diamine]
